Legend:
E. coli OGDHc E1 = biological target: T1, E. coli OGDHc E1 (Escherichia coli, UniProt P0AFG3); assay: E. coli OGDHc E1 inhibitory activity assay (DCPIP reduction); format: biochemical; conditions: for IC50: [ThDP] 30 μM; for Ki: determined according to the KM for ThDP
T1 sequence (P0AFG3 1-933): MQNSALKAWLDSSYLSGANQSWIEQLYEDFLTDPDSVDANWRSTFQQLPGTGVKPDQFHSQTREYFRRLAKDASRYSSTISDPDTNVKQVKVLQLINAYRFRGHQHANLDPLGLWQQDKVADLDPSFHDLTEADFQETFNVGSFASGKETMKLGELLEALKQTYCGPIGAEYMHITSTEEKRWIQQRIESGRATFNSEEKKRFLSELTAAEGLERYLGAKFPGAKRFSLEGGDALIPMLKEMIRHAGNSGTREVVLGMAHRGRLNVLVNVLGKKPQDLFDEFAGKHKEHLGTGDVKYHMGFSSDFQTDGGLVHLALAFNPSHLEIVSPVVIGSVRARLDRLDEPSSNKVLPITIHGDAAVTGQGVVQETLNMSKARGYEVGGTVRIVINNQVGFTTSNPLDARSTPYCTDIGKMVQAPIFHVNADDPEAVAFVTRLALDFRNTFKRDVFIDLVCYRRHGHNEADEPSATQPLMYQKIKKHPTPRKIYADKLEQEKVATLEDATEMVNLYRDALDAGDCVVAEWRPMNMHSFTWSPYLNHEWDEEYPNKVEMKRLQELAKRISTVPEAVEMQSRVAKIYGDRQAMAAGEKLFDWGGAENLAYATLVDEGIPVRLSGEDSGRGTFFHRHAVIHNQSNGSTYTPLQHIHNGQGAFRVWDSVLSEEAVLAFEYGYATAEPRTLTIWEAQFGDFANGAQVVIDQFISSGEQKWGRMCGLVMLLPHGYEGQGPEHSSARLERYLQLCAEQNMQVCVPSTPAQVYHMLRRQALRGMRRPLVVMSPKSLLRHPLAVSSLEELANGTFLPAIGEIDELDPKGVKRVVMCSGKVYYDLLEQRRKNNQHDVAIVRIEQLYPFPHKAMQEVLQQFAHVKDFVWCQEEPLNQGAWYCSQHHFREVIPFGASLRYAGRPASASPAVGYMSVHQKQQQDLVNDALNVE
Protocol: E. coli OGDHc E1 inhibitory activity assay. E. coli OGDHc E1 was from our previous work 5 and had been donated by R. Frank. Its activity was determined by monitoring DCPIP reduction at 600 nm using a microplate reader (CLARIOstar) and conducted as described 1,2 with some modifications. The percentage inhibition of compounds against E. coli OGDHc E1 was assayed at a final concentration of 250 µM. The reaction buffer (50 mM KH 2PO4 and 2 mM MgCl 2, pH 7) contained 50 µM ThDP (or 125 µM in the competition assay), 0.5 mM DCPIP, and 6.7 mg/ml E. coli OGDHc E1. The reaction mixture was preincubated at 37 °C for 60 min, then reaction was initiated by adding α-ketoglutarate to a final concentration of 10 mM. To determine the IC 50, ThDP concentration was lowered to 30 µM, and inhibitor concentration was varied (2-1000 µM). Specific activity was calculated using the molar […]
for the PDHc E1 assay. […] 5 […]

A. viridans PO = biological target: T2, A. viridans PO (Aerococcus viridans, UniProt A9X9K8); assay: A. viridans PO inhibitory activity assay (quinoneimine dye); format: biochemical; conditions: for IC50: [ThDP] 50 μM; for Ki: determined according to the KM for ThDP
T2 sequence (A9X9K8 1-592): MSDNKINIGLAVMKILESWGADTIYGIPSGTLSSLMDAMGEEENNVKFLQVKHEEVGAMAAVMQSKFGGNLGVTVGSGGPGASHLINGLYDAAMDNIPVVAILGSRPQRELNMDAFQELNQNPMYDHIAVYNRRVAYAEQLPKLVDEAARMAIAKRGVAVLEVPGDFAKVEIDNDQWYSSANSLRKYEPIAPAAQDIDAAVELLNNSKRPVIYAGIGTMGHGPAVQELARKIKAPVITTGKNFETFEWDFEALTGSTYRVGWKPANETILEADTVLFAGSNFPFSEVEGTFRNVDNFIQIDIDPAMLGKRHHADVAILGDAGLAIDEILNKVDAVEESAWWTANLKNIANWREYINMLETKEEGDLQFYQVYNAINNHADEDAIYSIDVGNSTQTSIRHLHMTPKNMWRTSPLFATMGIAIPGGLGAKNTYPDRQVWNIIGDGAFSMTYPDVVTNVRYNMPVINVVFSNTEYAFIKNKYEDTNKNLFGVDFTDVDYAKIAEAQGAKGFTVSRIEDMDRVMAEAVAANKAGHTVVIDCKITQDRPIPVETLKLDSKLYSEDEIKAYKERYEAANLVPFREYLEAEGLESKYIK
Protocol: A. viridans PO inhibitory activity assay. A. viridans PO and horseradish peroxidase were purchased from Sigma. A. viridans PO activity was determined by monitoring appearance of quinoneimine dye at 550 nm using a microplate reader (CLARIOstar) and conducted as described 1 with some modifications.
The percentage inhibition of compounds against A. viridans PO was assayed at a final concentration of 250 µM. The reaction buffer (50 mM KH 2PO4 and 10 mM MgCl 2, pH 5.9) contained 50 µM ThDP (or 125 µM in the competition assay), 10 µM flavin adenine dinucleotide (FAD), 0.15% 4-Aminoantipyrine, 0.3% N-Ethyl-N-(2-hydroxy-3-sulfopropyl)-m-toluidine (EHSPT), 50 µg/mL horseradish peroxidase and 0.35 U/mL A. viridans PO. The reaction mixture was preincubated at 37 °C for 30 min, then reaction was initiated by adding pyruvate to a final concentration of 50 mM. To determine the IC 50, inhibitor concentration was varied (2-1000 µM) with ThDP concentration at 50 µM. 1 unit of PO activity is defined as 1 μmol of hydrogen peroxide produced per minute. The enzyme IC 50 values were calculated as described for the PDHc E1 assay. […]

[1] = [Compound] = 250 μM, [ThDP] = 50 μM
[2] = increased ThDP: [Compound] = 250 μM, [ThDP] = 125 μM

| Structure (SMILES) | inhibition at 250 µM (E. coli OGDHc E1; [1]) | Inhibition (%) PO (A. viridans PO; [1]) | inhibition at 250 µM (E. coli OGDHc E1; [2]) | Inhibition (%) PO (A. viridans PO; [2]) | IC50 (E. coli OGDHc E1) | Ki (E. coli OGDHc E1) | IC50 (A. viridans PO) | Ki (A. viridans PO) |
| --- | --- | --- | --- | --- | --- | --- | --- | --- |
| Cc1ncc(Cn2cc(CCC(=O)NO)nn2)c(N)n1 [Compound 24a] | 73 ± 2% | < 20% |  |  |  |  |  |  |
| Cc1ncc(Cn2cc(CCNS(=O)(=O)C(F)(F)F)nn2)c(N)n1 [Compound 18a] | 48 ± 2% | < 20% |  |  |  |  |  |  |
| Cc1ncc(Cn2cc(CCCC(=O)Nc3ccccc3N)nn2)c(N)n1 [Compound 26b] | 52 ± 2% | < 20% |  |  |  |  |  |  |
| COc1ccccc1C(=O)NCCCCc1cn(Cc2cnc(C)nc2N)nn1 [Compound 22c] | 35 ± 3% | < 20% |  |  |  |  |  |  |
| COc1ccc(-c2cn(CCCc3cn(Cc4cnc(C)nc4N)nn3)nn2)cc1 [Compound 17b] | < 20% | < 20% | < 20% | <20% |  |  |  |  |
| Cc1ncc(Cn2cc(CCCn3cc(-c4ccccc4)nn3)nn2)c(N)n1 [Compound 15b] | < 20% | < 20% | < 20% | <20% |  |  |  |  |
| Cc1ncc(Cn2cc(CCCn3cc(-c4ccc(F)cc4)nn3)nn2)c(N)n1 [Compound 16b] | < 20% | < 20% | < 20% | <20% |  |  |  |  |
| Cc1ncc(Cn2cc(CCC(=O)Nc3ccccc3N)nn2)c(N)n1 [Compound 26a] | 63 ± 2% | < 20% |  |  |  |  |  |  |
| Cc1ncc(Cn2cc(CCCC(=O)NO)nn2)c(N)n1 [Compound 24b] | > 90% | 35 ± 5% | 78 ± 3% | 27 ± 4% | 20 ± 2 µM | 2.02 µM | 202 ± 19 µM | 20.2 µM |
| COc1ccccc1C(=O)NCCCc1cn(Cc2cnc(C)nc2N)nn1 [Compound 22b] | 56 ± 3% | < 20% |  |  |  |  |  |  |
| Cc1ncc(Cn2cc(CCCCNS(=O)(=O)C(F)(F)F)nn2)c(N)n1 [Compound 18c] | 58 ± 4% | 22 ± 4% |  |  |  |  |  |  |
| COc1cccc(C(=O)NCCCc2cn(Cc3cnc(C)nc3N)nn2)c1 [Compound 21b] | 58 ± 5% | < 20% |  |  |  |  |  |  |
| Cc1ncc(Cn2cc(CCNC(=O)c3cccc(-c4noc(C(F)(F)F)n4)c3)nn2)c(N)n1 [Compound 19a] | < 20% | < 20% |  |  |  |  |  |  |
| Cc1ncc(Cn2cc(CCn3cc(-c4ccccc4)nn3)nn2)c(N)n1 [Compound 15a] | 23 ± 3% | 22 ± 2% | < 20% | <20% |  |  |  |  |
| Cc1ncc(Cn2cc(CCn3cc(-c4ccc(F)cc4)nn3)nn2)c(N)n1 [Compound 16a] | 25 ± 4% | < 20% | < 20% | <20% |  |  |  |  |
| COc1ccccc1C(=O)NCCc1cn(Cc2cnc(C)nc2N)nn1 [Compound 22a] | 80 ± 4% | < 20% |  |  |  |  |  |  |

| Structure (SMILES) | inhibition at 250 µM (E. coli OGDHc E1; [1]) | Inhibition (%) PO (A. viridans PO; [1]) | inhibition at 250 µM (E. coli OGDHc E1; [2]) | Inhibition (%) PO (A. viridans PO; [2]) | IC50 (E. coli OGDHc E1) | Ki (E. coli OGDHc E1) | IC50 (A. viridans PO) | Ki (A. viridans PO) |
| --- | --- | --- | --- | --- | --- | --- | --- | --- |
| Cc1ncc(Cn2cc(CCNC(=O)c3cccc(C#N)c3)nn2)c(N)n1 [Compound 20a] | < 20% | < 20% |  |  |  |  |  |  |
| Cc1ncc(Cn2cc(CCOC(=O)c3cccc(C#N)c3)nn2)c(N)n1 [Compound 14a] | < 20% | < 20% |  |  |  |  |  |  |
| Cc1ncc(Cn2cc(CCCCC(=O)NO)nn2)c(N)n1 [Compound 24c] | > 90% | 42 ± 5% | 82 ± 2% | 24 ± 4% | 15 ± 3 µM | 1.46 µM | 232 ± 23 µM | 23.2 µM |
| Cc1ncc(Cn2cc(CCCCn3cc(-c4ccc(F)cc4)nn3)nn2)c(N)n1 [Compound 16c] | < 20% | < 20% | < 20% | <20% |  |  |  |  |
| COc1ccc(-c2cn(CCCCc3cn(Cc4cnc(C)nc4N)nn3)nn2)cc1 [Compound 17c] | < 20% | < 20% | < 20% | <20% |  |  |  |  |
| Cc1ncc(Cn2cc(CCCCO)nn2)c(N)n1 [Compound 9c] | 51 ± 2% | < 20% |  |  |  |  |  |  |
| Cc1ncc(Cn2cc(CCO)nn2)c(N)n1 [Compound 9a] | 57 ± 4% | < 20% |  |  |  |  |  |  |
| COc1cccc(C(=O)NCCCCc2cn(Cc3cnc(C)nc3N)nn2)c1 [Compound 21c] | 25 ± 3% | < 20% |  |  |  |  |  |  |
| COc1ccc(-c2cn(CCc3cn(Cc4cnc(C)nc4N)nn3)nn2)cc1 [Compound 17a] | 21 ± 3% | < 20% | < 20% | <20% |  |  |  |  |
| Cc1ncc(Cn2cc(CCCNS(=O)(=O)C(F)(F)F)nn2)c(N)n1 [Compound 18b] | 42 ± 3% | < 20% |  |  |  |  |  |  |
| Cc1ncc(Cn2cc(CCCCC(=O)Nc3ccccc3N)nn2)c(N)n1 [Compound 26c] | 30 ± 2% | < 20% |  |  |  |  |  |  |
| Cc1ncc(Cn2cc(CCCCn3cc(-c4ccccc4)nn3)nn2)c(N)n1 [Compound 15c] | < 20% | < 20% | < 20% | <20% |  |  |  |  |
| Cc1ncc(Cn2cc(CCCO)nn2)c(N)n1 [Compound 9b] | 50 ± 3% | < 20% |  |  |  |  |  |  |
| COc1cccc(C(=O)NCCc2cn(Cc3cnc(C)nc3N)nn2)c1 [Compound 21a] | 63 ± 3% | < 20% |  |  |  |  |  |  |
| Cc1ncc(Cn2cc(CCOC(=O)c3cccc(-c4noc(C(F)(F)F)n4)c3)nn2)c(N)n1 [Compound 13a] | < 20% | < 20% |  |  |  |  |  |  |
| Cc1ncc(C[n+]2csc(CCO[P@@](=O)(O)OP(=O)(O)O)c2C)c(O)n1 [OxThDP 7b, oxythiamine diphosphate, reference compound] | 62 ± 4% | 48 ± 4% | 41 ± 4% | 32 ± 5% |  |  |  |  |

Reference: publication PMC10184313, “Inhibition of Thiamine Diphosphate-Dependent Enzymes by Triazole-Based Thiamine Analogues” (ACS Medicinal Chemistry Letters, 2023)
